Experimental data from patent US9834513B2, “Benzylamine derivatives” (KALVISTA PHARMACEUTICALS LIMITED, priority 2013, dated 2017).

Tests used:
diabetic rats = details: cited from earlier work
trypsin = trypsin (Homo sapiens, UniProt P07477); assay: Determination of enzyme selectivity: trypsin; assay type: biochemical; details: substrate at Km concentration
Method: Human serine protease enzymes plasmin, thrombin, trypsin, Factor Xa and Factor XIIa were assayed for enzymatic activity using an appropriate fluorogenic substrate. Protease activity was measured by monitoring the accumulation of liberated fluorescence from the substrate over 5 minutes. The linear rate of fluorescence increase per minute was expressed as percentage (%) activity. The Km for the cleavage of each substrate was determined by standard transformation of the Michaelis-Menten equation.

Human KLK1 = Human KLK1 (Homo sapiens (Human), UniProt P06870); assay: Determination of the IC50 for KLK1; assay type: biochemical; details: 37° C., fluorogenic substrate H-DVal-Leu-Arg-AFC
Method: KLK1 inhibitory activity in vitro was determined using standard published methods (see e.g. Johansen et al., Int. J. Tiss. Reac. 1986, 8, 185; Shori et al., Biochem. Pharmacol., 1992, 43, 1209; Stürzebecher et al., Biol. Chem. Hoppe-Seyler, 1992, 373, 1025). Human KLK1 (Callbiochem) was incubated at 37° C. with the fluorogenic substrate H-DVal-Leu-Arg-AFC and various concentrations of the test compound. Residual enzyme activity (initial rate of reaction) was determined by measuring the change in optical absorbance at 410 nm and the IC50 value for the test compound was determined.

Human plasma kallikrein = Human plasma kallikrein (Homo sapiens (Human), UniProt P03952); assay: Determination of the IC50 for plasma kallikrein; assay type: biochemical; details: 37° C., fluorogenic substrate H-DPro-Phe-Arg-AFC; read-out: IC50 (human PKal)
Method: Human plasma kallikrein (Protogen) was incubated at 37° C. with the fluorogenic substrate H-DPro-Phe-Arg-AFC and various concentrations of the test compound. Residual enzyme activity (initial rate of reaction) was determined by measuring the change in optical absorbance at 410 nm and the IC50 value for the test compound was determined.

Sequence of Human plasma kallikrein (P03952 391-638): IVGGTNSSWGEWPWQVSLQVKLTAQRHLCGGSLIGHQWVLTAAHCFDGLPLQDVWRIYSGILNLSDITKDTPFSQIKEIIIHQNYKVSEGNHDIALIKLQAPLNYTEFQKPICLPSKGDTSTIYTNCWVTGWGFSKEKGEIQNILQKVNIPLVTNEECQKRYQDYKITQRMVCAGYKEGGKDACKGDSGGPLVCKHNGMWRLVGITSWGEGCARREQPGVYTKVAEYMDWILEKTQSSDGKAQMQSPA
Sequence of Human plasma kallikrein (P03952 20-390 partner): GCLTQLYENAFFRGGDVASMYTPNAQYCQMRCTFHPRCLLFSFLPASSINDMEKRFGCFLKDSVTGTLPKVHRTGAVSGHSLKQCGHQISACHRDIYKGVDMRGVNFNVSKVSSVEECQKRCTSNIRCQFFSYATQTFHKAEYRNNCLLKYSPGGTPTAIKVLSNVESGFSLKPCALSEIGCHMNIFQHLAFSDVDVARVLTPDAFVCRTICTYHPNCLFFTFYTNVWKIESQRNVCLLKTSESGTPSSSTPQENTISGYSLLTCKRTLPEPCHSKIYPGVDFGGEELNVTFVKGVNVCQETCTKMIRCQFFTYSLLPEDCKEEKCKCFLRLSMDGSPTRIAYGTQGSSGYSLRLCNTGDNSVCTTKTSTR
Sequence of Human KLK1 (P06870 25-262): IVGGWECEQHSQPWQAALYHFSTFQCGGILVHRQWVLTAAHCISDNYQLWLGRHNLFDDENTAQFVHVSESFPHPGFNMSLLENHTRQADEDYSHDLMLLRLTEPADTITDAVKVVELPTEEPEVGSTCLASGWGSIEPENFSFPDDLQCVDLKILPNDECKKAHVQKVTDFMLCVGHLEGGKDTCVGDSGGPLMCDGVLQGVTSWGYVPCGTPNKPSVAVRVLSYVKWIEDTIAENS

**Q.** With `N=C(N)c1ccc(CNC(=O)c2cnn(Cc3ccccc3)c2)cc1` [ASP-440] as the compound, how does the “retinal vascular permeability and retinal blood flow abnormalities” value (diabetic rats) read?
**A.** ameliorated

**Q.** With `Cc1cc(C(=O)NCc2ccc(CN)cc2)c(C)n1Cc1csc(-c2ccccc2)n1` [Example 1, 2,5-Dimethyl-1-(2-phenyl-thiazol-4-ylmethyl)-1H-pyrrole-3-carboxylic acid 4-aminomethyl-benzylamide] as the compound, how does the IC50 (trypsin) read?
**A.** > 40 µM

**Q.** Which IC50 (trypsin) does the source give for `Cc1cc(CN)ccc1CNC(=O)c1cc(C)n(Cc2csc(-c3ccccc3)n2)c1C` [Example 2, 2,5-Dimethyl-1-(2-phenyl-thiazol-4-ylmethyl)-1H-pyrrole-3-carboxylic acid 4-aminomethyl-2-methyl-benzylamide] here?
**A.** > 40 µM

**Q.** What does the source list for `Cc1cc(C(=O)NCc2ccc(CN)cc2)c(C)n1Cc1cc(-c2ccccc2)cs1` [Example 9, 2,5-Dimethyl-1-(4-phenyl-thiophen-2-ylmethyl)-1H-pyrrole-3-carboxylic acid 4-aminomethyl-benzylamide]?
**A.** IC50 (Human KLK1): > 10 µM; IC50 (Human plasma kallikrein): 0.543 µM

**Q.** Which IC50 (Human KLK1) does the source give for `Cc1cc(C(=O)NCc2ccc(CN)cc2)c(C)n1Cc1ccc(-c2ccncc2)s1` [Example 21, 2,5-Dimethyl-1-(5-pyridin-4-yl-thiophen-2-ylmethyl)-1H-pyrrole-3-carboxylic acid 4-aminomethyl-benzylamide] here?
**A.** 7.5 µM

**Q.** And the IC50 (Human plasma kallikrein)?
**A.** 4.52 µM

**Q.** What does the source list for `Cc1cc(C(=O)NCc2ccc(CN)cc2)c(C)n1Cc1csc(-c2ccoc2)n1` [Example 39, 2,5-Dimethyl-1-(2-furan-3-yl-thiazol-4-ylmethyl)-1H-pyrrole-3-carboxylic acid 4-aminomethyl-benzylamide]?
**A.** IC50 (Human KLK1): > 10 µM; IC50 (Human plasma kallikrein): 1.09 µM

**Q.** Which IC50 (trypsin) does the source give for `NCc1ccc(CNC(=O)c2cn(Cc3csc(-c4ccccc4)n3)nc2C(F)(F)F)cc1` [Example 83, 1-(2-Phenyl-thiazol-4-ylmethyl)-3-trifluoromethyl-1H-pyrazole-4-carboxylic acid 4-aminomethyl-benzylamide] here?
**A.** 26.6 µM

**Q.** With `NCc1ccc(CNC(=O)c2cn(Cc3ccccc3)nc2-c2ccccc2)cc1` [Example 84, 1-Benzyl-3-phenyl-1H-pyrazole-4-carboxylic acid 4-aminomethyl-benzylamide] as the compound, how does the IC50 (trypsin) read?
**A.** > 40 µM
